According to ChEMBL document CHEMBL4002583, “Amino derivatives of platanic acid act as selective and potent inhibitors of butyrylcholinesterase” (Eur J Med Chem, 2017):

What was measured:
[1] = Selectivity ratio of Ki for equine serum BChE to Ki for electric eel AChE
Cholinesterase [2] = biological target: T1, Cholinesterase (Equus caballus, UniProt P81908); assay: Competitive inhibition of equine serum BChE using butyrylthiocholine iodide as substrate preincubated for 20 mins followed by substrate addition measured every 1 min for 30 mins by Dixon plot method
Acetylcholinesterase [3] = biological target: T2, Acetylcholinesterase (Electrophorus electricus, UniProt O42275); assay: Competitive inhibition of electric eel AChE using acetylthiocholine iodide as substrate preincubated for 20 mins followed by substrate addition measured every 1 min for 30 mins by Dixon plot method
Acetylcholinesterase [4] = biological target: T2, Acetylcholinesterase; assay: Uncompetitive inhibition of electric eel AChE using acetylthiocholine iodide as substrate preincubated for 20 mins followed by substrate addition measured every 1 min for 30 mins by Cornish-Bowden plot method
[5] = Selectivity ratio of Ki for electric eel AChE to Ki for equine serum BChE
Cholinesterase [6] = biological target: T1, Cholinesterase; assay: Uncompetitive inhibition of equine serum BChE using butyrylthiocholine iodide as substrate preincubated for 20 mins followed by substrate addition measured every 1 min for 30 mins by Cornish-Bowden plot method
Cholinesterase [7] = biological target: T3, Cholinesterase (Homo sapiens, UniProt P06276); assay: Inhibition of human serum BChE using butyrylthiocholine iodide as substrate by Ellman's method
Acetylcholinesterase [8] = biological target: Acetylcholinesterase (Homo sapiens, UniProt P22303); assay: Inhibition of […] using acetyl-(beta-methyl)thiocholine as substrate preincubated for 30 mins followed by substrate addition measured after 25 mins by spectrophotometric method
Cholinesterase [9] = biological target: T3, Cholinesterase; assay: Inhibition of […] using S-butyrylthiocholine as substrate preincubated for 30 mins followed by substrate addition measured after 25 mins by spectrophotometric method
[10] = Chemical stability in TRIS buffer at pH 8 measured over 2880 mins in presence of BChE by HPLC method; type: physicochemical; settings: pH 8, 48 h
[11] = Chemical stability in TRIS buffer at pH 8 measured over 2880 mins by HPLC method; type: physicochemical; settings: pH 8, 48 h

T1 sequence (P81908 whole entry): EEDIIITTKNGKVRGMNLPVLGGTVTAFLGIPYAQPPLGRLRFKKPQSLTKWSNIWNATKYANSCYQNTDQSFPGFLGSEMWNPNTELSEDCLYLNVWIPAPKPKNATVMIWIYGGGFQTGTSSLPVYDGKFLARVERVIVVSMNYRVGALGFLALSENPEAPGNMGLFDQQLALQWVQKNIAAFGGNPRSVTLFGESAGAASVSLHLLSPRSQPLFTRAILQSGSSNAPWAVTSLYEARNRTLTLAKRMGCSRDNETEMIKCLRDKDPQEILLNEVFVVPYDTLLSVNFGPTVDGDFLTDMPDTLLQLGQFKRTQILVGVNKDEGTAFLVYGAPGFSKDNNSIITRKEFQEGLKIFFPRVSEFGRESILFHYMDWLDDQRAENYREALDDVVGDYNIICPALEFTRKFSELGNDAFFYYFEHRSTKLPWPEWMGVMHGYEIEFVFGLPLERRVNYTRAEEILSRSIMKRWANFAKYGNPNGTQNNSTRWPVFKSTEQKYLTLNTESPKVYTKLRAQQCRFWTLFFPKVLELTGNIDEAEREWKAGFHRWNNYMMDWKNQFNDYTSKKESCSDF
T2 sequence (O42275 whole entry): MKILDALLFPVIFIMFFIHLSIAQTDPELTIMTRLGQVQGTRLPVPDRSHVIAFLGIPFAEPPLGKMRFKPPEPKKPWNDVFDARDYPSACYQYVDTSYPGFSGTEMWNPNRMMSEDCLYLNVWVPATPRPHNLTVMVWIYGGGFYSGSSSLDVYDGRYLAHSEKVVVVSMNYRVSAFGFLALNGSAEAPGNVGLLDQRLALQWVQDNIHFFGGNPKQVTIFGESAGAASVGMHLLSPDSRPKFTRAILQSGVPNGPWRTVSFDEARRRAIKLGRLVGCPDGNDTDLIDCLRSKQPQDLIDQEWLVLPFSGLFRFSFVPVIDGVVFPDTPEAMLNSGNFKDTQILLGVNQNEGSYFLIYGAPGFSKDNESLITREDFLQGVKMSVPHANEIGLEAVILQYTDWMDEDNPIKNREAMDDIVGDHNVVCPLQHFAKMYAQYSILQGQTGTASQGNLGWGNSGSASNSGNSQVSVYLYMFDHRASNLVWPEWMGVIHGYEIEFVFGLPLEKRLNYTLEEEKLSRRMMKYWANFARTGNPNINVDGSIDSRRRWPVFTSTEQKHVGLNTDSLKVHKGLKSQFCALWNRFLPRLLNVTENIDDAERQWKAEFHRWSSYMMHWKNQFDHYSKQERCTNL
T3 sequence (P06276 whole entry): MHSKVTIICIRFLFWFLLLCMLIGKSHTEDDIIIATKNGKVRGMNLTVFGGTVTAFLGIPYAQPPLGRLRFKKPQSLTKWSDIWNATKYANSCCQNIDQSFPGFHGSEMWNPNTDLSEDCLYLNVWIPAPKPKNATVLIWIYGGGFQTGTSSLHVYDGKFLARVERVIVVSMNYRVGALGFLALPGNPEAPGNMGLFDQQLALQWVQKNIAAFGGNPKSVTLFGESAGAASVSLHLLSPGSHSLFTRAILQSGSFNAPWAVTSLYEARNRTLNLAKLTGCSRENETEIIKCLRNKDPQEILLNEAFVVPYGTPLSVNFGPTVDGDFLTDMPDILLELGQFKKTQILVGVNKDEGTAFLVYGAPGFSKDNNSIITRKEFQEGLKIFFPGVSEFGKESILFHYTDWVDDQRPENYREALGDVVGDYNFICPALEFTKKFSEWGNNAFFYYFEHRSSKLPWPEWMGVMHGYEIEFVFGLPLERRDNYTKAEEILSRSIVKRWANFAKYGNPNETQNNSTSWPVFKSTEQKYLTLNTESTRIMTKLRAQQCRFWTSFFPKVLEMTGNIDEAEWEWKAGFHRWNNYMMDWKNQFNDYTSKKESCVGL
Chain of Acetylcholinesterase (Homo sapiens, UniProt P22303) (P22303 whole entry): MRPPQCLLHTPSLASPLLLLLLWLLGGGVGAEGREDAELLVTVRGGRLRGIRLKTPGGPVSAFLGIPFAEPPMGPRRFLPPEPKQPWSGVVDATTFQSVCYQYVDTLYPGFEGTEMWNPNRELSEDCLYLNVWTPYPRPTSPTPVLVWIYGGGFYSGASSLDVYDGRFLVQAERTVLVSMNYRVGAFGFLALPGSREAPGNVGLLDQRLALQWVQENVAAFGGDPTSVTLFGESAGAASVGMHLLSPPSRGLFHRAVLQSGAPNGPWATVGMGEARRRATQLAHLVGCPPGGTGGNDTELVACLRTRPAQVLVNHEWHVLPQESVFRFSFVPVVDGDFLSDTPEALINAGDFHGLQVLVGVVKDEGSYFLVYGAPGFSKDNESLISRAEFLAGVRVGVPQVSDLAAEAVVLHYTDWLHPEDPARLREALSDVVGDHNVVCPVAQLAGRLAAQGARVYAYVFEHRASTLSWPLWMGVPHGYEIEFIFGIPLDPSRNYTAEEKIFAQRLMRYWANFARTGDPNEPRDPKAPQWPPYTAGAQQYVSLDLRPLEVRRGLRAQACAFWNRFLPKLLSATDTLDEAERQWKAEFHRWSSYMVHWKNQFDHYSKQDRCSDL

Structure (SMILES) | Ratio Ki [1] | Ki (Cholinesterase [2]) [µM] | Ki (Acetylcholinesterase [3]) [µM] | Ki (Acetylcholinesterase [4]) [µM] | Ratio Ki [5] | Ki (Cholinesterase [6]) [µM] | Ki (Cholinesterase [7]) [µM] | IC50 (Acetylcholinesterase [8]) [µM] | IC50 (Cholinesterase [9]) [µM] | Stability [10] | Stability [11]
COC(=O)[C@]12CC[C@@H]([C@H](C)NC(C)=O)[C@@H]1[C@H]1CC[C@@H]3[C@@]4(C)CC[C@H](OC(C)=O)C(C)(C)[C@@H]4CC[C@@]3(C)[C@]1(C)CC2 | > 3.4 | > 40 | 11.8 | 45.6 | – | – | – | – | – | – | –
COC(=O)[C@]12CC[C@@H]([C@@H](C)N)[C@@H]1[C@H]1CC[C@@H]3[C@@]4(C)CC[C@H](OC(C)=O)C(C)(C)[C@@H]4CC[C@@]3(C)[C@]1(C)CC2 | – | 0.09 | > 4 | – | > 44 | 0.05 | – | – | – | – | –
CC(C)c1ccc(NC(=O)Oc2ccc3c(c2)[C@]2(C)CCN[C@@H]2N3)cc1 | – | – | – | – | – | – | 0.000131 | 0.11 | 0.001 | – | –
COC(=O)[C@]12CC[C@@H]([C@@H](C)NC(C)=O)[C@@H]1[C@H]1CC[C@@H]3[C@@]4(C)CC[C@H](OC(C)=O)C(C)(C)[C@@H]4CC[C@@]3(C)[C@]1(C)CC2 | – | > 4 | > 4 | – | – | – | – | – | – | – | –
CC(=O)[C@@H]1CC[C@]2(C(=O)OCc3ccccc3)CC[C@]3(C)[C@H](CC[C@@H]4[C@@]5(C)CC[C@@H](N)C(C)(C)[C@@H]5CC[C@]43C)[C@@H]12 | – | 1.8 | 20.3 | > 90 | 11 | 5.98 | – | – | – | – | –
CC(=O)O[C@H]1CC[C@]2(C)[C@H]3CC[C@@H]4[C@H]5[C@H](C(C)=O)CC[C@]5(C(=O)O)CC[C@@]4(C)[C@]3(C)CC[C@H]2C1(C)C | > 1.1 | > 10 | 9 | – | – | – | – | – | – | – | –
CC(=O)[C@@H]1CC[C@]2(N)CC[C@]3(C)[C@H](CC[C@@H]4[C@@]5(C)CC[C@H](O)C(C)(C)[C@@H]5CC[C@]43C)[C@@H]12 | – | 6.39 | 20.9 | > 120 | 3.3 | 38.9 | – | – | – | – | –
CC(=O)OC[C@]12CC[C@@H]([C@@H](C)N)[C@@H]1[C@H]1CC[C@@H]3[C@@]4(C)CC[C@H](OC(C)=O)C(C)(C)[C@@H]4CC[C@@]3(C)[C@]1(C)CC2 | – | 0.06 | 4.5 | – | 75 | 0.37 | – | – | – | – | –
CC(=O)[C@@H]1CC[C@]2(C(=O)OCc3ccccc3)CC[C@]3(C)[C@H](CC[C@@H]4[C@@]5(C)CCC(=O)C(C)(C)[C@@H]5CC[C@]43C)[C@@H]12 | > 3.8 | > 10 | 2.63 | 4.59 | – | – | – | – | – | – | –
COC(=O)[C@]12CC[C@@H]([C@H](C)N)[C@@H]1[C@H]1CC[C@@H]3[C@@]4(C)CC[C@H](OC(C)=O)C(C)(C)[C@@H]4CC[C@@]3(C)[C@]1(C)CC2 | – | 0.23 | > 40 | > 80 | > 173 | 3.89 | – | – | – | – | –
C[C@@H](N)[C@@H]1CC[C@]2(CO)CC[C@]3(C)[C@H](CC[C@@H]4[C@@]5(C)CC[C@H](O)C(C)(C)[C@@H]5CC[C@]43C)[C@@H]12 | – | 0.14 | 53.1 | 104 | 378 | 1.89 | – | – | – | – | –
C[C@@H](N)[C@@H]1CC[C@]2(C(=O)OCc3ccccc3)CC[C@]3(C)[C@H](CC[C@@H]4[C@@]5(C)CC[C@H](O)C(C)(C)[C@@H]5CC[C@]43C)[C@@H]12 | – | 0.07 | 11 | 47.8 | 157 | 0.19 | – | – | – | Stable | Stable
CC(=O)O[C@H]1CC[C@]2(C)[C@H]3CC[C@@H]4[C@H]5[C@H]([C@@H](C)N)CC[C@]5(C(=O)OCc5ccccc5)CC[C@@]4(C)[C@]3(C)CC[C@H]2C1(C)C | – | 0.01 | 8.51 | 17 | 851 | 0.4 | – | – | – | – | –
CC(=O)O[C@H]1CC[C@]2(C)[C@H]3CC[C@@H]4[C@H]5[C@H]([C@@H](C)N)CC[C@]5(C(=O)O)CC[C@@]4(C)[C@]3(C)CC[C@H]2C1(C)C | – | 0.1 | 20.9 | – | 209 | 2.75 | – | – | – | – | –
COC(=O)[C@]12CC[C@@H](C(C)=O)[C@@H]1[C@H]1CC[C@@H]3[C@@]4(C)CC[C@H](O)C(C)(C)[C@@H]4CC[C@@]3(C)[C@]1(C)CC2 | > 5 | > 4 | 0.76 | – | – | – | – | – | – | – | –
CC(=O)[C@@H]1CC[C@]2(C(=O)O)CC[C@]3(C)[C@H](CC[C@@H]4[C@@]5(C)CC[C@H](O)C(C)(C)[C@@H]5CC[C@]43C)[C@@H]12 [PLATANIC ACID] | > 1.6 | > 50 | 31.6 | 36.9 | – | – | – | – | – | – | –
CC(=O)O[C@H]1CC[C@]2(C)[C@H]3CC[C@@H]4[C@H]5[C@H](C(C)=O)CC[C@]5(C(=O)OCc5ccccc5)CC[C@@]4(C)[C@]3(C)CC[C@H]2C1(C)C | 368 | 33.1 | 0.09 | 0.21 | – | > 400 | – | – | – | – | –
CC(=O)[C@@H]1CC[C@]2(C(=O)NCCN)CC[C@]3(C)[C@H](CC[C@@H]4[C@@]5(C)CC[C@H](O)C(C)(C)[C@@H]5CC[C@]43C)[C@@H]12 | 1.2 | 8.37 | 7.18 | 9.71 | – | > 110 | – | – | – | – | –
COC(=O)[C@]12CC[C@@H](/C(C)=N/OC(C)=O)[C@@H]1[C@H]1CC[C@@H]3[C@@]4(C)CC[C@H](OC(C)=O)C(C)(C)[C@@H]4CC[C@@]3(C)[C@]1(C)CC2 | – | > 15 | > 15 | – | – | – | – | – | – | – | –
CC(=O)O[C@H]1CC[C@]2(C)[C@H]3CC[C@@H]4[C@H]5[C@H](C(C)=O)CC[C@]5(C(=O)NCCN)CC[C@@]4(C)[C@]3(C)CC[C@H]2C1(C)C | 3.9 | 11.9 | 3.06 | 6.83 | – | 17.1 | – | – | – | – | –
CC(=O)[C@@H]1CC[C@]2(C(=O)OCc3ccccc3)CC[C@]3(C)[C@H](CC[C@@H]4[C@@]5(C)CC[C@H](N)C(C)(C)[C@@H]5CC[C@]43C)[C@@H]12 | – | 0.56 | 13.4 | 76.6 | 24 | 3.5 | – | – | – | – | –
CC(=O)O[C@H]1CC[C@]2(C)[C@H]3CC[C@@H]4[C@H]5[C@H](/C(C)=N/O)CC[C@]5(C(=O)O)CC[C@@]4(C)[C@]3(C)CC[C@H]2C1(C)C | – | – | – | – | – | – | – | – | – | Stable | Stable
CC(=O)O[C@H]1CC[C@]2(C)[C@H]3CC[C@@H]4[C@H]5[C@H](C(C)=O)CC[C@]5(C(N)=O)CC[C@@]4(C)[C@]3(C)CC[C@H]2C1(C)C | > 1.2 | > 10 | 8.16 | 10.9 | – | – | – | – | – | – | –
CCC(=O)O/N=C(\C)[C@@H]1CC[C@]2(C(=O)OC)CC[C@]3(C)[C@H](CC[C@@H]4[C@@]5(C)CC[C@H](OC(C)=O)C(C)(C)[C@@H]5CC[C@]43C)[C@@H]12 | – | > 30 | > 30 | – | – | – | – | – | – | – | –
CC(=O)O[C@H]1CC[C@]2(C)[C@H]3CC[C@@H]4[C@H]5[C@H]([C@H](C)N)CC[C@]5(C(=O)OCc5ccccc5)CC[C@@]4(C)[C@]3(C)CC[C@H]2C1(C)C | – | 0.38 | 10.7 | 34.2 | 28 | 6.78 | – | – | – | – | –
CC(=O)[C@@H]1CC[C@]2(C(=O)OCc3ccccc3)CC[C@]3(C)[C@H](CC[C@@H]4[C@@]5(C)CC[C@H](O)C(C)(C)[C@@H]5CC[C@]43C)[C@@H]12 | > 17 | > 10 | 0.59 | 4.06 | – | – | – | – | – | – | –
COC(=O)[C@]12CC[C@@H](NC(C)=O)[C@@H]1[C@H]1CC[C@@H]3[C@@]4(C)CC[C@H](OC(C)=O)C(C)(C)[C@@H]4CC[C@@]3(C)[C@]1(C)CC2 | > 1.4 | > 20 | 14.1 | – | – | – | – | – | – | – | –
